Results published in US4556715A, “Nicotinic acid derivatives” (Kyorin Pharmaceutical Co., Ltd., priority 1980, dated 1985).
Like-named read-outs stand apart in the source and are kept apart here.

Columns and labels:
[1] = tested on: serum and liver lipid levels in normal rats; test: Effects on relative liver weight, serum and liver lipid levels in normal rats (100 mg/kg, 7 days); assay type: in vivo, Male Wistar strain rats; settings: for serum Ch, TG and PL (in words): compared with control; for Liver lipid levels Ch / Liver lipid levels PL / Liver lipid levels TG / Serum lipid levels Ch / Serum lipid levels PL / Serum lipid levels TG / Relative liver weight / Liver lipid levels Ch, relative to Control (100) / Liver lipid levels PL, relative to Control (100) / Liver lipid levels TG, relative to Control (100) / Relative liver weight, relative to Control (100) / Serum lipid levels Ch, relative to Control (100) / Serum lipid levels PL, relative to Control (100) / Serum lipid levels TG, relative to Control (100): Table 1; for Liver lipid levels Ch / Liver lipid levels PL / Liver lipid levels TG / Serum lipid levels Ch / Serum lipid levels PL / Serum lipid levels TG: fasted overnight; for Liver lipid levels Ch / Liver lipid levels PL / Liver lipid levels TG / Serum lipid levels Ch / Serum lipid levels PL / Serum lipid levels TG / Relative liver weight: mean ± S.E. (n = 6); for Liver lipid levels Ch, relative to Control (100) / Liver lipid levels PL, relative to Control (100) / Liver lipid levels TG, relative to Control (100) / Relative liver weight, relative to Control (100) / Serum lipid levels Ch, relative to Control (100) / Serum lipid levels PL, relative to Control (100) / Serum lipid levels TG, relative to Control (100): in parentheses
Description: (1) Effects on relative liver weight, serum and liver lipid levels in normal rats
Male Wistar strain rats, weighing 180-210 g were orally administered the present compounds (X=Cl, n1 =2, 3, 4 and n2 =1) and 4-(4-chlorobenzyloxy)benzyl nicotinate (KCD-232), being X=Cl, n1 =1, n2 =1, respectively, which were suspended in 0.5% carboxymethyl cellulose (CMC) solution once a day at a dose of 100 mg/kg b.w. for 7 days. The last administration was occured in rats fasted overnight. At 4 hr later blood was withdrawn from jugular vein, clotted and centrifuged to obtain serum. The liver was rapidly removed and weighed. Total lipids were extracted from the serum and liver, and cholesterol (Ch), triglycerides (TG) and phospholipids (PL) levels were determined.

[2] = tested on: serum and liver lipid levels in rats; test: Serum and liver lipid levels and relative liver weight in rats (100 mg/kg, 10 days); assay type: in vivo, Male rats of the Wistar strain; settings: for lipid lowering effects compared with KCD-232 (in words) / Liver lipid levels Ch / Liver lipid levels PL / Liver lipid levels TG / Relative liver weight / Serum lipid levels Ch / Serum lipid levels PL / Serum lipid levels TG: 100 mg/kg p.o. 10 days; for response vs control in vivo at 100 mg/kg: Rattus norvegicus, po; for response vs control in vivo at 100 mg/kg / Relative liver weight, relative to Control (100): in parentheses, Control = (100); for Liver lipid levels Ch / Liver lipid levels PL / Liver lipid levels TG / Relative liver weight / Serum lipid levels Ch / Serum lipid levels PL / Serum lipid levels TG: Mean ± S.E. (n = 9)
Description: (2) Male rats of the Wistar strain weighing 160-180 g were fed a stock deit (CE-2, Japan CLEA, Tokyo) and water ad libitum. The present compounds and KCD-232 were suspended, respectively, in a 0.5% of CMC solution and give orally to rats once a day at a dose of 100 mg/kg b.w. for 10 days.
Control rats were received the 0.5% CMC solution alone. The diet was withdrawn immediately after the last administration of compounds. Animals were sacrificed by decapitation 4 hr after the last administration and blood was collected, clotted and centrifuged to obtain serum. The liver was excised quickly and weighed. Total lipids were extracted from the serum and liver, and the levels of Ch, TG and PL were determined colorimetrically.

[3] = tested on: serum and liver lipid levels in rats; test: Serum and liver lipid levels and relative liver weight in rats (25 mg/kg, 10 days); assay type: in vivo, male Wistar rats; settings: Table 4; for Liver lipid levels Ch / Liver lipid levels PL / Liver lipid levels TG / Relative liver weight / Serum lipid levels Ch / Serum lipid levels PL / Serum lipid levels TG: 25 mg/kg p.o. 10 days, Mean ± S.E. (n = 7); for Liver lipid levels Ch, relative to Control (100) / Liver lipid levels PL, relative to Control (100) / Liver lipid levels TG, relative to Control (100) / Relative liver weight, relative to Control (100) / Serum lipid levels Ch, relative to Control (100) / Serum lipid levels PL, relative to Control (100) / Serum lipid levels TG, relative to Control (100): in parentheses
Description: (3) The present compounds and KCD-232 were orally given to male Wistar rats weighing 160-180 g once a day at a dose of 25 mg/kg b.w. for 10 days. Rats were subjected to fast for 4 hr immediately after the last administration of compounds, thereafter they were sacrificed by decapitation and blood was collected, clotted and centrifuged to obtain serum. The liver was removed quickly and weighed. Total lipids were extracted from the serum and liver, and then the levels of total Ch, TG and PL were determined with colorimetric methods.

in vivo = settings: mouse, po, p o, male ICR mice
Description: The present compounds were given to 6 week-old male mice of the ICR strain and their acute toxicity was examined.

[4] = 240 h, Table 2, read-out: Liver lipid levels PL, relative to Control (100)
[5] = Table 2, read-out: Liver lipid levels Ch, relative to Control (100)
[6] = Table 2, read-out: Liver lipid levels TG, relative to Control (100)
[7] = Table 2, read-out: Serum lipid levels Ch, relative to Control (100)
[8] = Table 2, read-out: Serum lipid levels PL, relative to Control (100)
[9] = Table 2, read-out: Serum lipid levels TG, relative to Control (100)

O=C(OCc1ccc(OCCCc2ccc(Cl)cc2)cc1)c1cccnc1 [n1=3, n2=1, 4-[3-(4-Chlorophenyl)propoxy]benzyl nicotinate]
serum Ch, TG and PL (in words) ([1]; 100 mg/kg p.o. 7 days): significantly reduced serum Ch, TG and PL | Liver lipid levels Ch ([1]; 100 mg/kg p.o. 7 days): 3.57 ± 0.15 mg/g liver | Liver lipid levels PL ([1]; 100 mg/kg p.o. 7 days): 34.1 ± 1.8 mg/g liver | Liver lipid levels TG ([1]; 100 mg/kg p.o. 7 days): 5.95 ± 1.83 mg/g liver | Serum lipid levels Ch ([1]; 100 mg/kg p.o. 7 days): 48.4 ± 5.4 mg/dL | Serum lipid levels PL ([1]; 100 mg/kg p.o. 7 days): 64.4 ± 5.2 mg/dL | Serum lipid levels TG ([1]; 100 mg/kg p.o. 7 days): 18 ± 2.5 mg/dL | Relative liver weight ([1]; 100 mg/kg p.o. 7 days): 3.20 ± 0.06 g/100 g b.w. | Liver lipid levels Ch, relative to Control (100) [1]: 101 | Liver lipid levels PL, relative to Control (100) [1]: 92 | Liver lipid levels TG, relative to Control (100) [1]: 81 | Relative liver weight, relative to Control (100) [1]: 104 | Serum lipid levels Ch, relative to Control (100) [1]: 64 | Serum lipid levels PL, relative to Control (100) [1]: 63 | Serum lipid levels TG, relative to Control (100) [1]: 53 | lipid lowering effects compared with KCD-232 (in words) [2]: the lipid lowering effects were superior to that of KCD-232 | response vs control in vivo at 100 mg/kg [2, 4]: 104% | response vs control in vivo at 100 mg/kg [2, 5]: 101% | response vs control in vivo at 100 mg/kg [2, 6]: 59.3% | response vs control in vivo at 100 mg/kg [2, 7]: 71.9% | response vs control in vivo at 100 mg/kg [2, 8]: 65.2% | response vs control in vivo at 100 mg/kg [2, 9]: 24.7% | Liver lipid levels Ch ([2]; Table 2): 3.09 ± 0.15 mg/g liver | Liver lipid levels PL ([2]; Table 2): 39.8 ± 0.8 mg/g liver | Liver lipid levels TG ([2]; Table 2): 3.75 ± 0.27 mg/g liver | Relative liver weight ([2]; Table 2): 3.89 ± 0.10 g/100 g b.w. | Serum lipid levels Ch ([2]; Table 2): 62.3 ± 3.1 mg/dL | Serum lipid levels PL ([2]; Table 2): 96.8 ± 5 mg/dL | Serum lipid levels TG ([2]; Table 2): 30.6 ± 2.8 mg/dL | Relative liver weight, relative to Control (100) ([2]; Table 2): 101 | Liver lipid levels Ch [3]: 3.16 ± 0.13 mg/g liver | Liver lipid levels PL [3]: 40.3 ± 0.9 mg/g liver | Liver lipid levels TG [3]: 3.97 ± 0.35 mg/g liver | Relative liver weight [3]: 3.84 ± 0.13 g/100 g b.w. | Serum lipid levels Ch [3]: 60.3 ± 5.3 mg/dL | Serum lipid levels PL [3]: 83.2 ± 8.5 mg/dL | Serum lipid levels TG [3]: 24.2 ± 2.8 mg/dL | Liver lipid levels Ch, relative to Control (100) [3]: 97.2 | Liver lipid levels PL, relative to Control (100) [3]: 106.1 | Liver lipid levels TG, relative to Control (100) [3]: 53.4 | Relative liver weight, relative to Control (100) [3]: 109 | Serum lipid levels Ch, relative to Control (100) [3]: 76.9 | Serum lipid levels PL, relative to Control (100) [3]: 76.9 | Serum lipid levels TG, relative to Control (100) [3]: 64.0 | LD50 (in vivo): > 4000 mg/kg

O=C(OCc1ccc(OCCCCc2ccc(Cl)cc2)cc1)c1cccnc1 [n1=4, n2=1, 4-[4-(4-chlorophenyl)butoxy]benzyl nicotinate]
serum Ch, TG and PL (in words) ([1]; 100 mg/kg p.o. 7 days): significantly reduced serum Ch, TG and PL | reduction of liver TG level compared with control ([1]; 100 mg/kg p.o. 7 days, p<0.05): 32% | Liver lipid levels Ch ([1]; 100 mg/kg p.o. 7 days): 3.43 ± 0.10 mg/g liver | Liver lipid levels PL ([1]; 100 mg/kg p.o. 7 days): 30.2 ± 1.4 mg/g liver | Liver lipid levels TG ([1]; 100 mg/kg p.o. 7 days): 5.06 ± 1.21 mg/g liver | Serum lipid levels Ch ([1]; 100 mg/kg p.o. 7 days): 45.3 ± 3.8 mg/dL | Serum lipid levels PL ([1]; 100 mg/kg p.o. 7 days): 60.4 ± 4.8 mg/dL | Serum lipid levels TG ([1]; 100 mg/kg p.o. 7 days): 16 ± 3.2 mg/dL | Relative liver weight ([1]; 100 mg/kg p.o. 7 days): 3.16 ± 0.05 g/100 g b.w. | Liver lipid levels Ch, relative to Control (100) [1]: 97 | Liver lipid levels PL, relative to Control (100) [1]: 82 | Liver lipid levels TG, relative to Control (100) [1]: 69 | Relative liver weight, relative to Control (100) [1]: 102 | Serum lipid levels Ch, relative to Control (100) [1]: 60 | Serum lipid levels PL, relative to Control (100) [1]: 59 | Serum lipid levels TG, relative to Control (100) [1]: 47 | lipid lowering effects compared with KCD-232 (in words) [2]: the lipid lowering effects were superior to that of KCD-232 | response vs control in vivo at 100 mg/kg [2, 4]: 107% | response vs control in vivo at 100 mg/kg [2, 5]: 94.4% | response vs control in vivo at 100 mg/kg [2, 6]: 80.5% | response vs control in vivo at 100 mg/kg [2, 7]: 67.2% | response vs control in vivo at 100 mg/kg [2, 8]: 60.9% | response vs control in vivo at 100 mg/kg [2, 9]: 24.2% | Liver lipid levels Ch ([2]; Table 2): 2.87 ± 0.13 mg/g liver | Liver lipid levels PL ([2]; Table 2): 40.8 ± 0.7 mg/g liver | Liver lipid levels TG ([2]; Table 2): 5.06 ± 0.69 mg/g liver | Relative liver weight ([2]; Table 2): 4.04 ± 0.10 g/100 g b.w. | Serum lipid levels Ch ([2]; Table 2): 58.3 ± 3.3 mg/dL | Serum lipid levels PL ([2]; Table 2): 90.5 ± 4.6 mg/dL | Serum lipid levels TG ([2]; Table 2): 29.9 ± 2.3 mg/dL | Relative liver weight, relative to Control (100) ([2]; Table 2): 105 | LD50 (in vivo): > 4000 mg/kg

O=C(OCCCCCCc1ccc(OCc2ccc(Cl)cc2)cc1)c1cccnc1 [n1=1, n2=6, 6-[4-(4-Chlorobenzyloxy)phenyl]hexyl nicotinate]
response vs control in vivo at 100 mg/kg ([2]; 240 h, Table 3, read-out: Liver lipid levels PL, relative to Control (100)): 106% | response vs control in vivo at 100 mg/kg ([2]; Table 3, read-out: Liver lipid levels Ch, relative to Control (100)): 107% | response vs control in vivo at 100 mg/kg ([2]; Table 3, read-out: Liver lipid levels TG, relative to Control (100)): 83.7% | response vs control in vivo at 100 mg/kg ([2]; Table 3, read-out: Serum lipid levels Ch, relative to Control (100)): 75.3% | response vs control in vivo at 100 mg/kg ([2]; Table 3, read-out: Serum lipid levels PL, relative to Control (100)): 68.9% | response vs control in vivo at 100 mg/kg ([2]; Table 3, read-out: Serum lipid levels TG, relative to Control (100)): 32.1% | Liver lipid levels Ch ([2]; Table 3): 2.48 ± 0.10 mg/g liver | Liver lipid levels PL ([2]; Table 3): 38.5 ± 0.7 mg/g liver | Liver lipid levels TG ([2]; Table 3): 6.01 ± 0.76 mg/g liver | Relative liver weight ([2]; Table 3): 3.72 ± 0.06 g/100 g b.w. | Serum lipid levels Ch ([2]; Table 3): 73.5 ± 2.3 mg/dL | Serum lipid levels PL ([2]; Table 3): 107 ± 3.1 mg/dL | Serum lipid levels TG ([2]; Table 3): 40.3 ± 3.5 mg/dL | Relative liver weight, relative to Control (100) ([2]; Table 3): 98 | Liver lipid levels Ch [3]: 2.83 ± 0.18 mg/g liver | Liver lipid levels PL [3]: 38.8 ± 1.1 mg/g liver | Liver lipid levels TG [3]: 5.48 ± 0.93 mg/g liver | Relative liver weight [3]: 3.91 ± 0.09 g/100 g b.w. | Serum lipid levels Ch [3]: 70 ± 5.5 mg/dL | Serum lipid levels PL [3]: 100 ± 5.9 mg/dL | Serum lipid levels TG [3]: 33.5 ± 2.5 mg/dL | Liver lipid levels Ch, relative to Control (100) [3]: 87.1 | Liver lipid levels PL, relative to Control (100) [3]: 102.1 | Liver lipid levels TG, relative to Control (100) [3]: 73.7 | Relative liver weight, relative to Control (100) [3]: 111 | Serum lipid levels Ch, relative to Control (100) [3]: 89.3 | Serum lipid levels PL, relative to Control (100) [3]: 92.5 | Serum lipid levels TG, relative to Control (100) [3]: 88.6 | LD50 (in vivo): > 4000 mg/kg
